Here are results for 21 molecules from ChEMBL document CHEMBL1201862, “PubChem BioAssay data set” (2004).

The source made the active and inactive calls. Some results are limits rather than exact numbers.

Some targets named below: Cytochrome P450 2D6 (Homo sapiens, UniProt P10635); Cytochrome P450 3A4 (Homo sapiens, UniProt P08684); Cytochrome P450 2C9 (Homo sapiens, UniProt P11712).
Assay [1] addresses T1, Heat shock factor protein 1 (Mus musculus, UniProt P38532).
T1 sequence (P38532 whole entry): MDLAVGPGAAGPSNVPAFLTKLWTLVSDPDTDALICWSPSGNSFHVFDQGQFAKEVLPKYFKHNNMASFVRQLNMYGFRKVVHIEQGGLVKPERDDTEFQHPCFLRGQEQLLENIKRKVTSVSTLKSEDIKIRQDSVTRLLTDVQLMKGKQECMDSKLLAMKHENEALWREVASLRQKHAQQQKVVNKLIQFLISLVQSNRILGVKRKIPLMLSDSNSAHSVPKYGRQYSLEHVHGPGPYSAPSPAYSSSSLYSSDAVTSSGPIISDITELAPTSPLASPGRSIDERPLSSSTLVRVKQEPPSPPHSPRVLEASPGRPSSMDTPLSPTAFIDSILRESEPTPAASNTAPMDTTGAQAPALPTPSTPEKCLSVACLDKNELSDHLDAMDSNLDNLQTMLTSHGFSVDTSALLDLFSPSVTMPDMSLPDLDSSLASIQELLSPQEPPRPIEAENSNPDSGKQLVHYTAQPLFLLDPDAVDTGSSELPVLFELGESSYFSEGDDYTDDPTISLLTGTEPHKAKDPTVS
The assay is described as follows: HSF1 potentiators in luciferase reporter cells, confirmation, cell-based, NIH3T3, luminescence, dose retest (AID 435004).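 Also: stress induced by proteasome inhibitor MG132 added 30 min after compound; luciferase reporter driven by HSF1 response element in NIH3T3 cells; actives raise luminescence as potentiators of the MG132 stress response.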 The class given is functional. A general note: In a reporter assay the amount or activity of a reporter protein is the signal.

A short description of assay [2]: Luminescence Cell-Based Dose Confirmation HTS to Identify Activators of 5'UTR Stem-Loop Driven Alpha-Synuclein mRNA Translation in H4 Neuroglioblastoma Cells. [Related pubchem assays: 1829 (Project Summary), 1814 (Primary HTS)]. The class given is functional.
A short description of assay [3]: Luminescence Cell-Based Dose Response HTS to Identify Activators of Luciferase Translation or Activity in H4 […] Cells. [Related pubchem assays: 1829 (Project Summary), 1814 (Primary HTS)]. It counts as functional.
The test system of another assay is H4. The assay is described as follows: Luminescence Cell-Based Dose Response HTS to Identify Activators of 5'UTR Stem-Loop Driven Prion Protein mRNA Translation in H4 Neuroglioblastoma Cells. [Related pubchem assays: 1829 (Project Summary), 1814 (Primary HTS)]. It counts as functional. The following applies: Homo sapiens.
The target of assay [4] is T2, Corticotropin-releasing factor receptor 2/Corticotropin-releasing factor-binding protein (Homo sapiens, UniProt P24387+Q13324).
T2 sequence (Q13324 whole entry): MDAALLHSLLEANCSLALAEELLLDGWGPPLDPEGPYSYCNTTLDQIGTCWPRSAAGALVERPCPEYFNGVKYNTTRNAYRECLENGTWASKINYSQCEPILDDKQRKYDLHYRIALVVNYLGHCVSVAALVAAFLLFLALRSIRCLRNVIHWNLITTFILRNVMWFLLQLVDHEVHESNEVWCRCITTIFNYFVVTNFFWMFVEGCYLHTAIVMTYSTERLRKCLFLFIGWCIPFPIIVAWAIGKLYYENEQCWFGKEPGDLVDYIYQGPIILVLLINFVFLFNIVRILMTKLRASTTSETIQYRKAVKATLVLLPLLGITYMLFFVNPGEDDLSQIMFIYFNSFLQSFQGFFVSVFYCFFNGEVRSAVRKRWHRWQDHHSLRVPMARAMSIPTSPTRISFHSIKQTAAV
T2 sequence (P24387 whole entry): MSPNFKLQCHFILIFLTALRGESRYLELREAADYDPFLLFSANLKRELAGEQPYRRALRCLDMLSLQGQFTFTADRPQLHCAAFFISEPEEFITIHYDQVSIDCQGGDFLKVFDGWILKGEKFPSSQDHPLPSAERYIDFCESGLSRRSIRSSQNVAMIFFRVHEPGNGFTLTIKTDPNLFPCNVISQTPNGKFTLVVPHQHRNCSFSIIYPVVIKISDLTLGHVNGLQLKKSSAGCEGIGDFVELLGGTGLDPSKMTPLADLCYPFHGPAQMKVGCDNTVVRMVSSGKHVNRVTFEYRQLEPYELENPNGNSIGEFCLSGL
The assay is described as follows: activators of CRF receptor 2 with binding protein – uHTS hits, confirmation (AID 602473). The class given is functional. The following applies: read-out: EC50_Mean.

Assay [5] in a line: growth suppression of PTEN-null colon cells, dose response, cell-based, HCT116 PTEN knockout (AID 1047).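 Also: HCT116 colon tumor cells with PTEN knocked out; cells exposed to compound for 60 hours before readout; potency for loss of cell viability measured by luminescence.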 It counts as functional.
A short description of assay [6]: growth suppression of beta-catenin-knockout colon cells, dose response, cell-based, HCT116, human colon tumor (AID 1045).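 Also: HCT116 colon tumor cells with beta catenin knocked out; cells exposed to compound for 60 hours.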 It counts as functional.
The nature of assay [7]: Luminescence Cell-Based Dose Retest to Confirm Inhibitors of Cancer Stem Cells. [Related pubchem assays (depositor defined):AID2717, AID2721]. The class given is functional. As to conditions: Homo sapiens.
Assay [8] concerns the target T3, Replicative DNA helicase DnaB (Mycobacterium tuberculosis, UniProt P9WMR3).
T3 sequence (P9WMR3 whole entry): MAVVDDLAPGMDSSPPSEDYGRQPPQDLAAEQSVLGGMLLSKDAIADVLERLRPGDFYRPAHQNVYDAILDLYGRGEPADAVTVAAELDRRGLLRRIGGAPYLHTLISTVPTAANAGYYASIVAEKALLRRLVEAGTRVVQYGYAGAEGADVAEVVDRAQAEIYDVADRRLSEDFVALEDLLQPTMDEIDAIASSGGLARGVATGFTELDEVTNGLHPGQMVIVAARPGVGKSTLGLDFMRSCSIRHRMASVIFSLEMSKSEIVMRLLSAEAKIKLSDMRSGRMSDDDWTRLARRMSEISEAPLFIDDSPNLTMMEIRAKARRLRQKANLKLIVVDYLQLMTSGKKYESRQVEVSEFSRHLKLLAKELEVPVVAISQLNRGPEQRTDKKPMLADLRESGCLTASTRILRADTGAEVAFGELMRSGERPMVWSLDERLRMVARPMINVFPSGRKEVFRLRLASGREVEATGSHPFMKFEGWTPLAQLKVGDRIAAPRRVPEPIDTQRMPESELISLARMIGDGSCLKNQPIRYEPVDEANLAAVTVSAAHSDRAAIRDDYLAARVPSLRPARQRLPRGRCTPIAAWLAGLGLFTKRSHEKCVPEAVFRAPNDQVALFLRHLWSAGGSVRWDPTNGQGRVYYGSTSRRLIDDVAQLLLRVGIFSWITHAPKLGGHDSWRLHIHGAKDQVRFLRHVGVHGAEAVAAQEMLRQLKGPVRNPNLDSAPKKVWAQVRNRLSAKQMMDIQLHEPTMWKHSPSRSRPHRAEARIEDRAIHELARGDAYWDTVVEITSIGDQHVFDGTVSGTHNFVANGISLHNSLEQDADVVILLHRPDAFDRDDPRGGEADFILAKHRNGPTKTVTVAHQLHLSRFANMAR
The assay is described as follows: DnaB intein splicing inhibitors, dose response, biochemical, cell-free fluorescence (AID 449749). It counts as functional.

The target in another assay is T4, Protein RecA (Mycobacterium tuberculosis, UniProt P9WHJ3).
T4 sequence (P9WHJ3 whole entry): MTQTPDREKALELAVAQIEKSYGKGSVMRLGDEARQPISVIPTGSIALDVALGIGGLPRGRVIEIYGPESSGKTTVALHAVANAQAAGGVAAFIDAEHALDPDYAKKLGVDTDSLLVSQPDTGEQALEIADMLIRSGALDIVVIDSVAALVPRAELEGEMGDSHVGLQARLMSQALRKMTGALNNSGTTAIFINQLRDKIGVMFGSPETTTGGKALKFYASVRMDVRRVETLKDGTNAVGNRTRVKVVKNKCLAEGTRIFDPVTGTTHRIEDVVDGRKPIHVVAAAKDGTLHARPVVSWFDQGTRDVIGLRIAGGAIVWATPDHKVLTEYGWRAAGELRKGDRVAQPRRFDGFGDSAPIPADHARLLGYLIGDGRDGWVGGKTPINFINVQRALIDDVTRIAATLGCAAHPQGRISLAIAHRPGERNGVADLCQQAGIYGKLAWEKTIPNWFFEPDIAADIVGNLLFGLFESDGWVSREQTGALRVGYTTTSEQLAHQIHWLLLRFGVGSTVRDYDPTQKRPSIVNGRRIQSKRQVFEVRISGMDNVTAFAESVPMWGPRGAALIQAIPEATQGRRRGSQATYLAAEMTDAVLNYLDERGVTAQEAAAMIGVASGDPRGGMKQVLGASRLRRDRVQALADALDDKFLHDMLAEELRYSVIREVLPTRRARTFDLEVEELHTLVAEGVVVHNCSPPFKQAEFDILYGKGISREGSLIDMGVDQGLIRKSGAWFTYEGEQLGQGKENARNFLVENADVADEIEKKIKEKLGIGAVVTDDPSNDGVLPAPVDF
The assay is described as follows: Fluorescence Cell-Free Homogeneous Dose Retest to Identify Inhibitors of RecA-Intein Splicing Activity. [Related pubchem assays (depositor defined):AID2097, AID2223, AID489010, AID492950]. It counts as functional.

Assay [9] concerns the target T5, RNA-binding protein pos-1 (Caenorhabditis elegans, UniProt G5EF15).
T5 sequence (G5EF15 whole entry): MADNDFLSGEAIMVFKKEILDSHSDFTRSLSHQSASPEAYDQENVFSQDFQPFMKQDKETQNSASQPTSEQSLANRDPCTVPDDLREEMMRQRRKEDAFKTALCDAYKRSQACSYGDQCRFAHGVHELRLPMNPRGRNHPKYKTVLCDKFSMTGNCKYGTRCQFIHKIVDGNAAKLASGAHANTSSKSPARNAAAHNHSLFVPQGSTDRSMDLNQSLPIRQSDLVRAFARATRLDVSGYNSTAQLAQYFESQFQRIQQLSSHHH
The assay is described as follows: inhibitors of POS-1/mex-3 RNA binding, dose response, biochemical, fluorescence polarization (AID 1964).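 Also: purified POS-1 fused to maltose binding protein made in E. coli; potency of compounds blocking POS-1 binding to fluorescent RNA.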

Cytochrome P450 3A4, sequence (P08684 whole entry): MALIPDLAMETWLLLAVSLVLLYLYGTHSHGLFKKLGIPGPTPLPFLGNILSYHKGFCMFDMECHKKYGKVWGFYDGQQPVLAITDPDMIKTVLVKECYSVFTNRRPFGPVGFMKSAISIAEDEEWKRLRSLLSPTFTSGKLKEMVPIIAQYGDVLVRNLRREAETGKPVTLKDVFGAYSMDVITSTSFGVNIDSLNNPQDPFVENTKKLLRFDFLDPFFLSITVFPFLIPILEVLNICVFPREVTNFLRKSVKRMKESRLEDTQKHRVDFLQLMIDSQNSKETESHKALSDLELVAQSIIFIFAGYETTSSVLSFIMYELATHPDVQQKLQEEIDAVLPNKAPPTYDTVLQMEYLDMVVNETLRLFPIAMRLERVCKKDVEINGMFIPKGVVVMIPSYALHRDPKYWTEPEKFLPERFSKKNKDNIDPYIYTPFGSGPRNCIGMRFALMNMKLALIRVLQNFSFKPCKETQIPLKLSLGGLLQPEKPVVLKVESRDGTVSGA
Cytochrome P450 2C9, sequence (P11712 whole entry): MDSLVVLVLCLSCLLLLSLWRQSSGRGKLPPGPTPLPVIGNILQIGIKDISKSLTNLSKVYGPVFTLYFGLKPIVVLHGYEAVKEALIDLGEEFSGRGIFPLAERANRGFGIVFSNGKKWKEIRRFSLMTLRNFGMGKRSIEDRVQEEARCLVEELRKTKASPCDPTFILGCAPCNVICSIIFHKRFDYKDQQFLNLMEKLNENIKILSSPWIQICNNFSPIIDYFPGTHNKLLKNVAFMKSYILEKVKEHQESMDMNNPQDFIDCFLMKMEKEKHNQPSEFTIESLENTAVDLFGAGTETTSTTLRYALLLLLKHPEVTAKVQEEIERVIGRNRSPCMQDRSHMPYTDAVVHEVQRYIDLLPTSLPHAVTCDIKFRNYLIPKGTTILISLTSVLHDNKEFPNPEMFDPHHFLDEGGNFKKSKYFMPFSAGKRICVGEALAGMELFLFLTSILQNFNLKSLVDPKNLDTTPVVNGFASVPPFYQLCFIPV
Cytochrome P450 2D6, sequence (P10635 whole entry): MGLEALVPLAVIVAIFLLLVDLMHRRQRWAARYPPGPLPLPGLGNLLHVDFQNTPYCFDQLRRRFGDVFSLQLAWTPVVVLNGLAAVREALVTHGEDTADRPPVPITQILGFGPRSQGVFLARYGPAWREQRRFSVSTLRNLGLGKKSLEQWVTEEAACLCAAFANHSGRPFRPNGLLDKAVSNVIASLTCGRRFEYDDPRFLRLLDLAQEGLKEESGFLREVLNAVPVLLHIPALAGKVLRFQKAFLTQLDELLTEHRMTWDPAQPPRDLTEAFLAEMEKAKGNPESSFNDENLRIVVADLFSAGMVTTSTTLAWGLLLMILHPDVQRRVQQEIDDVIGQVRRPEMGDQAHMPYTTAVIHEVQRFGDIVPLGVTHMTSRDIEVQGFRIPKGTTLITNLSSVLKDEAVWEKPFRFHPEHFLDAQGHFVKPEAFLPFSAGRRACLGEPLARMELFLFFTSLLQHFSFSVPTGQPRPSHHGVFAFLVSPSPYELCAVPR

On to `COc1cccc(OCc2ccc(Cl)cc2)c1C#N`, for which the EC50 in assay [1] is > 260 µM (inactive).
For the molecule `CCOC(=O)COc1cccc2c(=O)n(CC(=O)NCCc3ccccc3)ccc12`, the results for the EC50 (in assay [2]; in assay [3]; in the assay on H4) were > 120 µM (not active), > 120 µM (not active) and 19.5 µM (active), respectively.
As to `CCOC(=O)C1=NN(C(=O)c2ccccc2)C(O)(c2ccc(C)cc2)C1` (stereo not drawn), the EC50 in assay [1] was > 260 µM (inactive); in assay [4], 13.5 µM (active).
Consider `CCOC(=O)C1=C(N)Oc2c(c(O)nc3ccccc23)C1c1ccccc1` (stereo not drawn), for which the EC50 in assay [5] was 53.5 µM (active); in assay [6], 94.3 µM (active).
As for `COc1ccc([N+]2=C3CCc4ccccc4N3CC2(C)O)cc1` (stereo not drawn), the EC50 (in [2]; in assay [3]; in the assay on H4) was > 120 µM (not active) in each case.
`COc1ccc(C2CC(c3ccccc3OC(=O)/C=C/c3ccccc3)=NN2C(C)=O)cc1` (stereo not drawn): the EC50 in assay [2] is 14 µM (active); in assay [3], 18.5 µM (active); in the assay with H4 it was 36.4 µM (active).
For `CSC1=NC(C)(C)CC2(C)Nc3ccccc3N12` (stereo not drawn), the EC50 (in [2]; in assay [3]; with H4) was > 120 µM (not active) in each case.
As to `CS(=O)(=O)Nc1cccc(C2=NN(C(=O)CCCC(=O)O)C(c3cccs3)C2)c1` (stereo not drawn), the EC50 in [1] was > 260 µM (inactive).
`Clc1ccc(CO/N=C/c2c(-c3ccccc3)nc3n2CCS3)c(Cl)c1`: the AC50 in assay [7] was 2.22 µM (active). The EC50 in [1] is > 260 µM (inactive).
On to `O=C(CSc1nc(-c2ccccc2)cs1)NCCN1C(=O)CSC1=O`, for which the results for the EC50 (in [2]; in assay [3]; with H4) were 6.7 µM (active), 31.1 µM (active) and 17.9 µM (active), respectively.
Consider `O=C1/C(=C\c2ccc(Br)o2)Cc2ccccc21`, for which the EC50 in [1] is 27.6 µM (active).
In the case of `C=CCn1c(=O)c2ccccc2n2c(SCC(=O)Nc3sc(C)c(CC)c3C(=O)OCC)nnc12`, the EC50 in assay [1] is > 260 µM (inactive).
Consider `O=C(OCc1csc(-c2ccccc2)n1)c1cccs1`, for which the EC50 in [1] was > 260 µM (inactive).
As to `CC(c1nccs1)N(C)C(=O)c1cn(Cc2cccc3ccccc23)nn1` (stereo not drawn), the EC50 in assay [2] is 13.2 µM (active); in assay [3], 18 µM (active); in the assay on H4, 47.3 µM (active).
For the molecule `CC1=CC(C)(C)N=C(S)N1c1cccc(C)c1`, in assay [1], the EC50 is > 260 µM (inactive). Also, the AC50 is 6.31 µM (inconclusive) on Cytochrome P450 2D6, 25.1 µM (inconclusive) on Cytochrome P450 3A4 and 3.55 µM (inconclusive) on Cytochrome P450 2C9.
Take `CC(C)(C)n1ncc2c(=O)n(CC(=O)c3ccc(Cl)cc3)cnc21`: the EC50 in assay [2] was 0.168 µM (active); in assay [3], 0.115 µM (active).
As for `CC(C)(C)c1ccc(C(=O)NCC(=O)OCC(=O)Nc2nc(-c3ccc(F)cc3)cs2)cc1`, the EC50 in assay [2] is 19.9 µM (active); in [3], > 120 µM (not active); in the assay on H4, 13.5 µM (active).
Turning to `O=C(O)c1ccc(/C=N/N2CCN(c3ccccc3)CC2)cc1`, the EC50 is 0.687 µM (active) in assay [2], 19.6 µM (active) in assay [3] and > 120 µM (not active) with H4.
The matching figures for `CCOc1ccc(C(=O)Nc2nnc(S(=O)(=O)N(C)Cc3ccco3)s2)cc1`: 15.1 µM (active), 0.162 µM (inconclusive) and 6.04 µM (active).
For `COc1cccc(-n2nc(C#N)c(Cl)cc2=O)c1`, the figures for the EC50 (in assay [1]; at Protein RecA) were 10.7 µM (active) and 4.38 µM (active), respectively. Besides, the AC50 in [8] is 2.49 µM (active).
For the molecule `Cc1cc(C)cc(N2C(=O)NC(=O)/C(=C\c3cccn3-c3ccc(Cl)cc3)C2=O)c1`, the EC50 in [9] is 84.5 µM (active).

For orientation: AC50 means the concentration giving half of the maximal activity seen.
